“Also recorded” adds a separate entry of the source. Like-named read-outs stand apart in the source and are kept apart here.
Tests used:
[1] = tested on: glucose limitation sensitive or resistant cell lines
Description: (§1) 250,000 cells then were attached to the plate by centrifugation at 2200 rpm without brakes for 5 min. For adherent cells, 40,000 to 80,000 cells were plated the night before the experiments. […] For spare respiratory capacity measurements, increasing FCCP concentrations (0.1, 0.5 and 2 uM) were used in order to assess maximum OCR of each cell line. For basal oxygen consumption measurements, cell number or protein concentration was used for normalization.
Metabolic responses of cell lines to mitochondrial uncoupling were analyzed by treating cells from a number of glucose limitation sensitive or resistant cell lines with the mitochondrial uncoupling agent FCCP and measuring OCR.

[2] = tested on: glucose limitation sensitive and glucose limitation resistant tumor cell lines; assay: Proliferation of tumor cell lines exposed to metformin under low glucose; assay type: cell-based
Description: We tested the sensitivity of a panel of glucose limitation sensitive and glucose limitation resistant tumor cell lines to treatment with metformin, a compound that inhibits OXPHOS at least in part by inhibiting complex 1. Cells were exposed to 2 mM metformin for 3 days.

[3] = tested on: tumors from glucose limitation resistant cell line NCI-H82; assay: Metformin treatment of mice with established tumors; assay type: in vivo; details: metformin 400 mg/kg, close to 3 weeks
Description: (§2) In vivo data was obtained initially using one cell line that is resistant to glucose limitation (NCI-H82) and one cell line that is sensitive to glucose limitation (NCI-H929). Mice harboring established tumors derived from these cell lines were treated with metformin (400 mg/kg) or vehicle (PBS) for close to 3 weeks and tumor size was measured. The tumor sizes were averaged for all tumors in that particular group at the end. […] Tumors from the sensitive line are on average half the size in mice treated with metformin than in mice treated with vehicle.

[4] = tested on: tumors from glucose limitation sensitive cell line NCI-H929; assay: as above; assay type: in vivo; details: metformin 400 mg/kg, close to 3 weeks
Description: as §2

[5] = tested on: panel of 8 cell lines with varying expression of CYC1 and UQCRC1; assay: Metformin sensitivity versus CYC1 and UQCRC1 expression in a panel of 8 cell lines; assay type: cell-based; details: 1 mM glucose as low glucose condition
Description: We tested the hypothesis that expression of CYC1 and UQCRC1 could predict sensitivity to metformin under conditions in which glucose is limiting. […] 1 mM glucose was used as a low glucose condition in this experiment.

[6] = among tetracycline-class antibiotics; cited from earlier work
U-937 xenografts = assay: Phenformin in drinking water, tumour xenografts; assay type: in vivo, mice; details: U-937 (mtDNA mutations); phenformin 1.7 mg/ml in drinking water
Description: (§3) Further in vivo experiments were conducted using additional tumor cell lines. Xenografts were initiated with 2-5 million cells per injection site implanted subcutaneously into the right and left flanks of 5-8 week old male NOD.CB 17 Scid/J mice (Jackson Labs). Once tumours were palpable in all animals (>50 mm^3 volume by caliper measurements), mice were assigned randomly into biguanide treated or untreated groups and caliper measurements were taken every 3-4 days until tumour burden approached the limits set by institutional guidelines. Tumour volume was assessed according to the formula ½*W*W*L or 4/3*3.14*W/2*L/2*D/2 for large tumors. […] All experiments involving mice were carried out with approval from the Committee for Animal Care at MIT and under supervision of the Department of Comparative Medicine at MIT.

BxPC3 xenografts = assay: Phenformin in drinking water, tumour xenografts; assay type: in vivo, mice; details: BxPC3 (mtDNA mutations); phenformin 1.7 mg/ml in drinking water
Description: as §3

Cal-62 xenografts = assay: Phenformin in drinking water, tumour xenografts; assay type: in vivo, mice; details: Cal-62 (mtDNA mutations); phenformin 1.7 mg/ml in drinking water
Description: as §3

KMS-26 xenografts = assay: Phenformin in drinking water, tumour xenografts; assay type: in vivo, mice
Description: as §3

NCI-H929 xenografts = assay: Phenformin in drinking water, tumour xenografts; assay type: in vivo, mice; details: NCI-H929 (poor glucose consumption); phenformin 1.7 mg/ml in drinking water
Description: as §3

143B Rho cells = assay: Proliferation of cells lacking mtDNA with phenformin; details: 0.75 mM or 10 mM glucose
[7] = tested on: cells with mutations in Complex I; assay: Oxygen consumption rate (OCR) with phenformin, control or NDI1-expressing lines; assay type: cell-based
Description: as §1

[8] = tested on: xenografts of mtDNA mutant cells expressing NDI1; assay: Phenformin in drinking water, xenografts of NDI1-expressing cells; assay type: in vivo, mice
Description: as §3

[9] = tested on: cell lines with mtDNA-encoded Complex I mutations or impaired glucose utilization
Cal-62 cells = assay: Long term culture of mtDNA mutant cells in phenformin; assay type: cell-based; details: Cal-62, 1.5 months, 5-20 uM phenformin
Description: Cells were split 1:10 when nearing confluence. […] The ratio of wild type to mutant mtDNA was calculated by summing the 11 Sanger Sequencing peak height measurements per nucleotide position for the wild type and mutant allele allowing for the percent mutant calculated. These values were averaged over three nucleotide positions for which the base in the wild type and mutant sequence differs.

In the case of `N#CC(C#N)=NNc1ccc(OC(F)(F)F)cc1` [FCCP, Carbonyl cyanide 4-(trifluoromethoxy)phenylhydrazone], the “increase in OCR upon FCCP” value ([1]; glucose limitation resistant cell lines) is reported as “much greater increase in OCR” and the “increase in OCR upon FCCP” value ([1]; glucose limitation sensitive cells) is reported as “only a modest increase”.
With `CN(C)C(=N)NC(=N)N` [metformin, N,N-dimethylimidodicarbonimidic diamide] the “sensitivity to metformin (proliferation) of glucose limitation sensitive versus resistant cell lines” value ([2]; 2 mM metformin, 3 days, 0.75 mM glucose) was “markedly more sensitive; also recorded: greater inhibitory effects on proliferation”, the “sensitivity of U937 cells to metformin” value ([2]; U937 cell line) was “sensitive” and the “cleaved caspase 3 in tumors compared with vehicle” value [3] was “not observed”. For the same compound, the “effect on size of tumors compared with vehicle (PBS)” value [3] was “did not affect size of tumors”, the “cleaved caspase 3 in tumors compared with vehicle” value [4] was “increase in cleaved caspase 3; also recorded: increased level of cleaved caspase 3” and the “reduction in size of tumors compared with vehicle (PBS)” value [4] was “approximately 50%”. The “tumor size in metformin treated versus vehicle treated mice” value [4] was “half the size” and the “relation of UQCRC1+CYC1 expression to metformin sensitivity” value [5] was “correlated with sensitivity to metformin; also recorded: increased sensitivity”.
In the case of `CN(C)c1ccc(O)c2c1C[C@H]1C[C@H]3[C@H](N(C)C)C(O)=C(C(N)=O)C(=O)[C@@]3(O)C(O)=C1C2=O` [minocycline, (2E,4S,4aR,5aS,12aR)-2-(amino-hydroxy-methylidene)-4,7-bis(dimethylamino)-10,11,12a-trihydroxy-4a,5,5a,6-tetrahydro-4H-tetracene-1,3,12-trione], the penetration into organs [6] is given as “greatest penetration into certain organs such as the prostate and brain”.
For `N=C(N)NC(=N)NCCc1ccccc1` [phenformin, 2-(N-phenethylcarbamimidoyl)guanidine], the “growth of tumour xenografts” value (U-937 xenografts) was “inhibited the growth”, the “growth of tumour xenografts” value (BxPC3 xenografts) was “inhibited the growth” and the “growth of tumour xenografts” value (Cal-62 xenografts) was “inhibited the growth”. The “growth of tumour xenografts” value (KMS-26 xenografts; KMS-26 (poor glucose consumption), phenformin 1.7 mg/ml in drinking water) was “inhibited the growth”, the “effects of phenformin on xenograft growth after over-expression of GLUT3” value (KMS-26 xenografts; KMS-26 cells over-expressing GLUT3) was “rescued” and the “growth of tumour xenografts” value (NCI-H929 xenografts) was “inhibited the growth”. For the same compound, the “sensitivity of cells lacking mtDNA to phenformin” value (143B Rho cells) was “insensitive to phenformin”, the “effect of NDI1 expression on the effects of phenformin on oxygen consumption” value [7] was “almost completely rescued the effects of phenformin” and the “effects of phenformin on xenograft growth after introduction of NDI1” value [8] was “rescued”. For the same compound, the “phenformin sensitivity at intermediate glucose” value ([9]; 1.5-3.0 mM glucose) was “substantial sensitivity persisted”, the “sensitivity of BxPC3 cells to phenformin” value ([9]; BxPC3 pancreatic cancer cell line) was “sensitive” and the “effect of GLUT3 over-expression on phenformin sensitivity” value ([9]; cells with impaired glucose utilization, 0.75 mM glucose) was “almost completely rescued the phenformin sensitivity”. The “effect of NDI1 expression on the effects of phenformin on proliferation” value ([9]; cells with mutations in Complex I, 0.75 mM glucose) was “almost completely rescued the effects of phenformin”, the “phenformin sensitivity in 0.75 versus 10 mM glucose” value ([9]; low glucose sensitive cell lines, particularly those with impaired glucose utilization) was “more sensitive to phenformin in 0.75 than 10 mM glucose” and the “sensitivity to low glucose after culture in phenformin” value (Cal-62 cells) was “decrease in sensitivity to low glucose”. For the same compound, the “wild-type mtDNA content after culture in phenformin” value (Cal-62 cells) was “significantly enriched wild-type mtDNA content”.
